Values of other authors, collected in patent US20030108586A1, “Method of long-term reversible contraception for animals” (priority 2001, published 2003).
Read-outs that look alike come from different tables or passages of the source.

SMILES | adverse effects (bitches) | adverse effects (synthetic progestins)
C[C@@H]1CC2=CC(=O)CC[C@@H]2[C@H]2CC[C@@]3(C)[C@@H](CC[C@]3(C)O)[C@@H]21 [Mibolerone™, Mibolerone] | clitoral hypertrophy | –
CC(=O)O[C@]1(C(C)=O)CC[C@H]2[C@@H]3C=C(C)C4=CC(=O)CC[C@]4(C)[C@H]3CC[C@@]21C [Ovabant™, megestrol acetate] | – | development of mammary tumors as well as endometrial hyperplasia
